Literature values in patent US20100322880A1, “UVA FILTERS BASED ON ASCORBIC ACID DERIVATIVES” (Merck Patent GmbH, priority 2008, published 2010).

Test system: prolyl-4-hydroxylase
Conditions: for supporting the activity of the enzyme prolyl-4-hydroxylase: literature statement, no figures

SMILES	affinity to the enzyme (disubstituted compared with the monosubstituted compound)	supporting the activity of the enzyme prolyl-4-hydroxylase
CC(=O)Oc1ccccc1C(=O)OC[C@H](OC(=O)c1ccccc1OC(C)=O)[C@H]1OC(=O)C(O)=C1O [O^5O^6-bis(2-acetoxybenzoyl) L-ascorbate]	lower affinity	capable of supporting the activity
CC(=O)Oc1ccccc1C(=O)OC[C@H](O)[C@H]1OC(=O)C(O)=C1O [O^6-(2-acetoxybenzoyl) L-ascorbate]		capable of supporting the activity
